{
  "source": "patent US20080293699A1",
  "about": "“Inhibitors of thapsigargin-induced cell death” (priority 2007, published 2008)",
  "key": {"CSM14.1 cells": {"system": "CSM14.1 cells", "assay": "Tunicamycin-induced cell death of CSM14.1 cells", "assay_type": "cell-based, rat", "experimental": "CSM 14.1 cells were plated at a density of 3×10^3 cells/well in 96-well plates and incubated overnight. Cells were pre-incubated with 25 μM of each compound or 100 μM salubrinal for two hours, followed by […] tunicamycin treatment. 72 hours later, cell death rates were measured by flow cytometry analysis. Annexin V-negative population was considered as survivors. In FIG. 13, the white column represents 0.5% DMSO control showing 24% of survival, and the gray column 100 μM salubrinal. Black columns are data from each compound (25 μM) (compound numbers refer to the compounds in Table 9).\nFor the experiments shown in FIG. 18, undifferentiated CSM 14.1 cells were plated at 3,000 cells per well in 96-well plates (for the ATP assay) or at 1×10^4 cells per well in 24-well plates (for flow cytometry). The next day, cells were treated with DMSO (0.5%) or hit compounds 25 μM of a compound with 0.5% DMSO final concentration) for two hours, followed by treatment with various cell death-inducing reagents, including 15 μM Thapsigargin (TG) for 24 hrs, 10 μg/mL tunicamycin (TU) for 72 hrs, 2.5 μM staurosporine (STS) for 24 hrs, 50 μM VP16 for 48 hrs, or 30 ng/mL TNF plus 10 μg/mL cyclohexamide (CHX) for 24 hrs. Cellular ATP content was measured for staurosporine samples and TNF/CHX samples, normalizing data relative to cells treated with DMSO alone (the control) and presenting as a percentage of control. For measuring cell death resulting from treatment with tunicamycin and VP16, flow cytometry was used. All assays were performed in triplicate (mean ±SD)."}, "ASK1": {"biological_target": "T1, ASK1 (Homo sapiens, UniProt Q99683)", "T1 construct": "expressed in transfected cells; host or cells: HEK293T", "T1 sequence (Q99683 1-1374)": "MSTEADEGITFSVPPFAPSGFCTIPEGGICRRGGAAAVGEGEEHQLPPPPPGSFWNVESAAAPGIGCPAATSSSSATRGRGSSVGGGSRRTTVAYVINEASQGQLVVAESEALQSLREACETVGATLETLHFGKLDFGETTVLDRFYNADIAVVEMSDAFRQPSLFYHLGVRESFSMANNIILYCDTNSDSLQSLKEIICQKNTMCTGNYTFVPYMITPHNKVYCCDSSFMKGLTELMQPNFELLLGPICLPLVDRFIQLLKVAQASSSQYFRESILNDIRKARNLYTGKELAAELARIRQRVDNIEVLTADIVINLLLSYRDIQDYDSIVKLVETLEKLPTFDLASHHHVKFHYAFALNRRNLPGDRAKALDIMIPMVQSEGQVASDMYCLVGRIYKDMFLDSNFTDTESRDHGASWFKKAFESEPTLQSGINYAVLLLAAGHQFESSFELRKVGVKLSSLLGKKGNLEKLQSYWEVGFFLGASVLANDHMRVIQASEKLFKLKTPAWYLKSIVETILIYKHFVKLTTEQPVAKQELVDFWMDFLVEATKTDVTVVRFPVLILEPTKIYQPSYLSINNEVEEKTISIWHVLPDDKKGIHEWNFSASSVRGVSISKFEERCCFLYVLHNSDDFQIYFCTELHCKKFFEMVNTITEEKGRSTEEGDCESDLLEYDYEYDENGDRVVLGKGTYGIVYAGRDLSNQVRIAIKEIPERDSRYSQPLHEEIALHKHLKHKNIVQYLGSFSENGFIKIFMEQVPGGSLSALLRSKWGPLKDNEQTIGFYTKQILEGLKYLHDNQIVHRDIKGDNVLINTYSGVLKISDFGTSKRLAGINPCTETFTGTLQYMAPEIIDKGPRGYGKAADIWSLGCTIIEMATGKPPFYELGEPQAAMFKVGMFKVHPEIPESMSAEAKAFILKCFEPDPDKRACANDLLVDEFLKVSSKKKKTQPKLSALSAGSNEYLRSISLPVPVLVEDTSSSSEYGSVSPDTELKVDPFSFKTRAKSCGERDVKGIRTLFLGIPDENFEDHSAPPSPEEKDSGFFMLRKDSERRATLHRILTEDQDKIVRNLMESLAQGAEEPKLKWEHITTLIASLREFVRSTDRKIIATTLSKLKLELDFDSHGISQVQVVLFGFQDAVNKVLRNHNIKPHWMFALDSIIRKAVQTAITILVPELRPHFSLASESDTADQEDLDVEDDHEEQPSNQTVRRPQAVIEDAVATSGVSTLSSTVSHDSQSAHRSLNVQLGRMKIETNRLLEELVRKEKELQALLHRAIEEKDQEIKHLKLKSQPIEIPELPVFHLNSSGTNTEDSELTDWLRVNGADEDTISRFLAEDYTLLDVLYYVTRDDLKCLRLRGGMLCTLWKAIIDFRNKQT", "assay": "ASK1 autophosphorylation in vitro kinase assay", "assay_type": "biochemical", "conditions": "up to 50 μM, listed as CID-2878746", "experimental": "Suppression of thapsigargin-induced phosphorylation of p38MAPK was also measured by a quantitative ELISA-methods, with IC50 for p38MAPK phosphorylation estimated at <5 μM. In contrast, thapsigargin-induced expression of CHOP, expression of ATF4, proteolytic processing of ATF6, phosphorylation of eIF2a (Ser 51), auto-phosphorylation of Ire1a or auto-phosphorylation of ASK1 were not inhibited directly by CID-2878746 at concentrations up to 50 μM tested by in vitro kinase assay using p32-γ-ATP substrate. […] Thapsigargin-induced reductions in phosphorylation of ASK1 at the serine 967 site in ASK1 transfected 293T cells are inhibited by compound 5962123 at concentrations of 50-100 μM, as determined by immunoblotting using anti-phospho-specific (ser 967) antibody, but thapsigargin-induced changes in phosphorylation of ASK1 at ser 83 and thr 845 are not modulated by compound 5962123 at concentrations as high as 100 μM in ASK1-transfected HEK293T cells."}},
  "note": "pIC50: −log10 of the molar value. “Also recorded” adds a separate entry of the source.",
  "data": [
    {"smiles": "CCN(CC)c1ccc(C2Nc3ccccc3NC3=C2C(=O)CC(c2ccccc2)C3)cc1", "note": "(stereo not shown) [Compound 5962123, 6-(4-diethylaminophenyl)-9-phenyl-5,6,8,9,10,11-hexahydrobenzo[c][1,5]benzodiazepin-7-one]", "values": [
      {"measurement": "Inhibition of tunicamycin-induced cell death", "setting": "CSM14.1 cells; CSM14.1 cells, annexin V flow cytometry where stated", "value": "inhibits; also recorded: confirmed"},
      {"measurement": "Cytoprotective activity, stimulus Tunicamycin (Result)", "setting": "CSM14.1 cells; readout Annexin, CSM 14.1, compound ≦25 μM", "value": "+ (+indicates ≧50% rescue of cell viability relative to untreated cells not exposed to thapsigargin at compound concentration of ≦25 μM)"},
      {"measurement": "pIC50", "setting": "CSM14.1 cells; undifferentiated CSM14.1, ATP content assay, read-out: IC50, inhibition of tunicamycin-induced cell death", "value": 5.00},
      {"measurement": "ASK1 autophosphorylation", "setting": "ASK1", "value": "not inhibited"}
    ]}
  ]
}
